Results taken from PubChem BioAssay (NCI).
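Following 48 hours of exposure in 96-well plates, responses at five concentrations were used to interpolate endpoints linearly. Here, GI50 denotes the concentration required for 50% inhibition of growth. TGI: total growth inhibition.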

What was measured:
Test in all cases: NCI tumour cell line growth inhibition, 48 h
[1] = system: 786-0 renal
[2] = system: A498 renal
[3] = system: A549 NSCLC
[4] = system: ACHN renal
[5] = system: BT-549 breast
[6] = system: CAKI-1 renal
[7] = system: CCRF-CEM leukemia
[8] = system: DU-145 prostate
[9] = system: EKVX NSCLC
[10] = system: HCC-2998 colon
[11] = system: HCT-15 colon
[12] = system: HOP-62 NSCLC
[13] = system: HOP-92 NSCLC
[14] = system: HS 578T breast
[15] = system: HT29 colon
[16] = system: IGROV1 ovarian
[17] = system: K-562 leukemia
[18] = system: KM12 colon
[19] = system: LOX IMVI melanoma
[20] = system: M14 melanoma
[21] = system: MALME-3M melanoma
[22] = system: MCF7 breast
[23] = system: MDA-MB-231 breast
[24] = system: MDA-MB-435
[25] = system: MOLT-4 leukemia
[26] = system: NCI-H226 lung
[27] = system: NCI-H23 lung
[28] = system: NCI-H460 lung
[29] = system: NCI-H522 lung
[30] = system: NCI/ADR-RES ovarian
[31] = system: OVCAR-3 ovarian
[32] = system: OVCAR-4 ovarian
[33] = system: OVCAR-5 ovarian
[34] = system: OVCAR-8 ovarian
[35] = system: PC-3 prostate
[36] = system: RPMI-8226 leukemia
[37] = system: RXF 393 renal
[38] = system: SF-268 CNS
[39] = system: SF-295 CNS
[40] = system: SF-539 CNS
[41] = system: SK-MEL-2 melanoma
[42] = system: SK-MEL-28 melanoma
[43] = system: SK-MEL-5 melanoma
[44] = system: SK-OV-3 ovarian
[45] = system: SN12C renal
[46] = system: SNB-19 CNS
[47] = system: SNB-75 CNS
[48] = system: SR leukemia
[49] = system: SW-620 colon
[50] = system: T-47D breast
[51] = system: TK-10 renal
[52] = system: U251 CNS
[53] = system: UACC-257 melanoma
[54] = system: UACC-62 melanoma
[55] = system: UO-31 renal

For `C=C1C(=O)O[C@@H]2[C@@H]3O[C@@H](C[C@@H]13)[C@](C)(O)CC/C=C(\C)CCC[C@H]2C`, the GI50 [1] was 2560 nM, the TGI [1] was 9.03 µM and the GI50 [2] was 20.9 µM. The TGI [2] was 35.5 µM, the GI50 [3] was 9.21 µM and the TGI [3] was 25.2 µM. For the same molecule, the GI50 [4] was 926 nM, the TGI [4] was 2340 nM and the GI50 [5] was 1840 nM. The TGI [5] was 4.86 µM, the GI50 [6] was 957 nM and the TGI [6] was 2590 nM. It also gave a GI50 [7] of 394 nM, a TGI [7] of 1910 nM and a GI50 [8] of 3.08 µM. The TGI [8] was 12.6 µM, the GI50 [9] was 7.55 µM and the TGI [9] was 20 µM. The GI50 [10] was 830 nM, the TGI [10] was 3.88 µM and the GI50 [11] was 1390 nM. The TGI [11] was 2740 nM, the TGI [12] was 31.7 µM and the GI50 [13] was 500 nM. The TGI [13] was 2390 nM, the GI50 [14] was 5.99 µM and the TGI [14] was 24.9 µM. The GI50 [15] was 3.69 µM, the TGI [15] was > 33.9 µM and the GI50 [16] was 1060 nM. For the same molecule, the TGI [16] was 4.92 µM, the GI50 [17] was 416 nM and the TGI [17] was 4.01 µM. It also gave a GI50 [18] of 6.35 µM, a TGI [18] of 18.1 µM and a GI50 [19] of 1510 nM. The TGI [19] was 3000 nM, the GI50 [20] was 1830 nM and the TGI [20] was 3.75 µM. The GI50 [21] was 180 nM, the TGI [21] was 2610 nM and the GI50 [22] was > 100 µM. The TGI [22] was > 100 µM, the GI50 [23] was 1510 nM and the TGI [23] was 4.14 µM. For the same molecule, the GI50 [24] was 1970 nM, the TGI [24] was 6.17 µM and the GI50 [25] was 1390 nM. It also gave a TGI [25] of 3.37 µM, a GI50 [26] of 2080 nM and a TGI [26] of 7.4 µM. The TGI [27] was 3.67 µM, the GI50 [28] was > 100 µM and the TGI [28] was > 100 µM. The GI50 [29] was 1650 nM, the TGI [29] was 4.05 µM and the GI50 [30] was 523 nM. For the same molecule, the TGI [30] was 2130 nM, the GI50 [31] was 1650 nM and the TGI [31] was 3.86 µM. For the same molecule, the GI50 [32] was 2380 nM, the TGI [32] was > 23 µM and the GI50 [33] was 3.19 µM. For the same molecule, the TGI [33] was 12.6 µM, the GI50 [34] was 1910 nM and the TGI [34] was 10.4 µM. The GI50 [35] was 1760 nM, the TGI [35] was 5.27 µM and the GI50 [36] was 258 nM. The TGI [36] was 1470 nM, the GI50 [37] was 1770 nM and the GI50 [38] was > 100 µM. For the same molecule, the TGI [38] was > 100 µM, the GI50 [39] was 9.38 µM and the TGI [39] was 23.9 µM. It also gave a GI50 [40] of 13 µM, a TGI [40] of 25.7 µM and a GI50 [41] of 9.32 µM. For the same molecule, the TGI [41] was 24.2 µM, the GI50 [42] was 2360 nM and the TGI [42] was > 21.8 µM. It also gave a GI50 [43] of 5.57 µM, a TGI [43] of 13.9 µM and a GI50 [44] of 28.7 µM. The TGI [44] was > 50.4 µM, the GI50 [45] was 2060 nM and the TGI [45] was 6.64 µM. For the same molecule, the GI50 [46] was 29 µM, the TGI [46] was > 49 µM and the GI50 [47] was 14.1 µM. For the same molecule, the TGI [47] was > 35.8 µM, the GI50 [48] was 395 nM and the TGI [48] was 2050 nM. For the same molecule, the GI50 [49] was 739 nM, the TGI [49] was 2310 nM and the TGI [50] was > 22.6 µM. For the same molecule, the GI50 [51] was 1500 nM, the TGI [51] was 3.26 µM and the GI50 [52] was 2840 nM. For the same molecule, the TGI [52] was 12.8 µM, the GI50 [53] was 4.9 µM and the TGI [53] was 14.9 µM. The GI50 [54] was 3.51 µM, the TGI [54] was 14.1 µM and the GI50 [55] was 1250 nM. The TGI [55] was 2790 nM.
